Data on 14 compounds can be found in patent publication US20230295200A1 (REGENTS OF THE UNIVERSITY OF MICHIGAN, priority 2022, published 2023).

The target of one assay is T1, STAT6 protein (Homo sapiens, UniProt P42226).
T1 sequence (P42226 1-847): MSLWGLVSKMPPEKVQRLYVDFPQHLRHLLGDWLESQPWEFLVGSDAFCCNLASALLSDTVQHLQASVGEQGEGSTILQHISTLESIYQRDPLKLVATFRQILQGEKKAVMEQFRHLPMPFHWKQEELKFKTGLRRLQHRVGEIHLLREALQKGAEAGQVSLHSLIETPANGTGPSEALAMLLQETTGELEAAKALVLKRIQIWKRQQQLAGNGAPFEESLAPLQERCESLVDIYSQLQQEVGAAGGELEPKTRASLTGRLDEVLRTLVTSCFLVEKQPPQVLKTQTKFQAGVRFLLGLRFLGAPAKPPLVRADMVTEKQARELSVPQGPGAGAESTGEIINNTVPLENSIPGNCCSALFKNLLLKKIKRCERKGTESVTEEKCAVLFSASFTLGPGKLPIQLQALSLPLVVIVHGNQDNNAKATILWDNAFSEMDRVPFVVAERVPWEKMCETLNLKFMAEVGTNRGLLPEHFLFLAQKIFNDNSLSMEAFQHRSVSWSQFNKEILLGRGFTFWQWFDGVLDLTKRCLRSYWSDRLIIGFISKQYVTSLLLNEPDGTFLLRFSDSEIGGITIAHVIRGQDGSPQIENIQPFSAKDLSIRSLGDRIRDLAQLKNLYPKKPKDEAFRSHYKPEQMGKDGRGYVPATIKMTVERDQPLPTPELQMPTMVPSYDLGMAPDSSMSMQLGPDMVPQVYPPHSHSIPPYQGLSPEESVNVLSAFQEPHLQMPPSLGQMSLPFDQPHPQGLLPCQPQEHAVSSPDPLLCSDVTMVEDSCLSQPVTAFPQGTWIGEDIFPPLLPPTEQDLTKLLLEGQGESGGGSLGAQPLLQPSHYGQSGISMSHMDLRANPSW
Briefly: Fluorescence polarization (FP) binding assay, STAT6. Particulars: FP competition, 5 nM fluorescein-labeled tracer, 200 nM protein, PBS pH7.4; read-out: Binding STAT6. The method, boiled down: (§1)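 Fluorescence polarization is read after STAT5 or STAT6 protein (200 nM) and a fluorescein-labeled tracer (5 nM) equilibrate for 1 h at room temperature in DTT-containing PBS pH 7.4 with BGG and Tween-20. Inhibition constants are obtained by nonlinear curve fitting.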
A general note: In fluorescence polarisation assays a small probe gives low polarisation when free and higher when bound to something large.

A further assay addresses T2, STAT5A (Homo sapiens, UniProt P42229).
T2 sequence (P42229 1-794): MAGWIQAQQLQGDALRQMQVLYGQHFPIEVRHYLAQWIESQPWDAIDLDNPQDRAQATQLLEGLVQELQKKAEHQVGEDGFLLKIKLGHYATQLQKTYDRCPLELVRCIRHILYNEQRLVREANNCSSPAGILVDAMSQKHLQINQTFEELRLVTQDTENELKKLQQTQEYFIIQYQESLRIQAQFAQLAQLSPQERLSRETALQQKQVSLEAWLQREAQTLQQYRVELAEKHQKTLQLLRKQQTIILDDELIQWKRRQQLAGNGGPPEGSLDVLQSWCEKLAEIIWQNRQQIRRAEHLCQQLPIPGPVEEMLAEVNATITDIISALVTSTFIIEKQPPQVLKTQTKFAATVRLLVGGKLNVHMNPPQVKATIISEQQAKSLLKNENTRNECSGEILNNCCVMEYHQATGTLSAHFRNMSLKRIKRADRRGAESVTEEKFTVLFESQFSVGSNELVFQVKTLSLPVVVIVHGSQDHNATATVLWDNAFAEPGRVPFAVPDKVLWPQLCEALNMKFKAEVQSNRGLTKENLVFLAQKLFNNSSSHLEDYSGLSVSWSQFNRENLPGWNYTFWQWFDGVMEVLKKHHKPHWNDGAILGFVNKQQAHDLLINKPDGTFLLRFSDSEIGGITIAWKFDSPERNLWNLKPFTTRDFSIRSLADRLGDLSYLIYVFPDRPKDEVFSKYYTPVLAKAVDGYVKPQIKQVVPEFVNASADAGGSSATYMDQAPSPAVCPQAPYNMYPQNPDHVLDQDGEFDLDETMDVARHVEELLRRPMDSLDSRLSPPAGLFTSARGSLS
Description: Fluorescence polarization (FP) binding assay, STAT5A. Particulars: FP competition, 5 nM fluorescein-labeled tracer, 200 nM protein, PBS pH7.4. The method in brief:
as §1

With `CC(C)(C)[C@H](NC(=O)c1cc2cc(C(F)(F)P(=O)(O)O)ccc2s1)C(=O)N1CCC[C@H]1C(=O)N1CCc2ccc(Cl)cc2C1` [Compound 68, ((2-(((S)-1-((S)-2-(7-chloro-1,2,3,4-tetrahydroisoquinoline-2-carbonyl)pyrrolidin-1-yl)-3,3-dimethyl-1-oxobutan-2-yl)carbamoyl)benzo[b]thiophen-5-yl)difluoromethyl)phosphonic acid], the results for the Ki on STAT6 protein and on STAT5A were 1 to 10 µM and greater than 10 µM, respectively.

Turning to `CC(C)(C)[C@H](NC(=O)c1cc2cc(C(F)(F)P(=O)(O)O)ccc2s1)C(=O)N1CCC[C@H]1C(=O)NC1(c2ccccc2)CC1` [Compound 71, ((2-(((S)-3,3-dimethyl-1-oxo-1-((S)-2-((1-phenylcyclopropyl)carbamoyl)pyrrolidin-1-yl)butan-2-yl)carbamoyl)benzo[b]thiophen-5-yl)difluoromethyl)phosphonic acid], the Ki on STAT6 protein was 1 to 10 µM; at STAT5A, greater than 10 µM.

`CN(Cc1ccc(Cl)cc1)C(=O)[C@@H]1CCCN1C(=O)[C@@H](NC(=O)c1cc2cc(C(F)(F)P(=O)(O)O)ccc2s1)C(C)(C)C` [Compound 73, ((2-(((S)-1-((S)-2-((4-chlorobenzyl)(methyl)carbamoyl)pyrrolidin-1-yl)-3,3-dimethyl-1-oxobutan-2-yl)carbamoyl)benzo[b]thiophen-5-yl)difluoromethyl)phosphonic acid]: the Ki on STAT6 protein is 1 to 10 µM; at STAT5A it was greater than 10 µM.

Take `CN(Cc1ccc(Br)cc1)C(=O)[C@@H]1CCCN1C(=O)[C@@H](NC(=O)c1cc2cc(C(F)(F)P(=O)(O)O)ccc2s1)C(C)(C)C` [Compound 74, ((2-(((S)-1-((S)-2-((4-bromobenzyl)(methyl)carbamoyl)pyrrolidin-1-yl)-3,3-dimethyl-1-oxobutan-2-yl)carbamoyl)benzo[b]thiophen-5-yl)difluoromethyl)phosphonic acid]: the Ki on STAT6 protein was 1 to 10 µM; on STAT5A it was greater than 10 µM.

Consider `CC(C)(C)[C@H](NC(=O)c1cc2cc(C(F)(F)P(=O)(O)O)ccc2s1)C(=O)N1CCC[C@H]1C(=O)N(Cc1ccccc1)C1CCCCC1` [Compound 75, ((2-(((S)-1-((S)-2-(benzyl(cyclohexyl)carbamoyl)pyrrolidin-1-yl)-3,3-dimethyl-1-oxobutan-2-yl)carbamoyl)benzo[b]thiophen-5-yl)difluoromethyl)phosphonic acid], for which the Ki is 1 to 10 µM at STAT6 protein and greater than 10 µM on STAT5A.

In the case of `CC(C)(C)[C@H](NC(=O)c1cc2cc(C(F)(F)P(=O)(O)O)ccc2s1)C(=O)N1CCC[C@H]1C(=O)N(Cc1ccccc1)C1CCOCC1` [Compound 76, ((2-(((S)-1-((S)-2-(benzyl(tetrahydro-2H-pyran-4-yl)carbamoyl)pyrrolidin-1-yl)-3,3-dimethyl-1-oxobutan-2-yl)carbamoyl)benzo[b]thiophen-5-yl)difluoromethyl)phosphonic acid], the Ki was 1 to 10 µM on STAT6 protein and greater than 10 µM at STAT5A.

`CC(C)(C)[C@H](NC(=O)c1cc2cc(C(F)(F)P(=O)(O)O)ccc2s1)C(=O)N1CCC[C@H]1C(=O)N1CC[C@H]2CCN[C@H]2C1` [Compound 78, ((2-(((S)-3,3-dimethyl-1-((S)-2-((3aR,7aR)-octahydro-1H-pyrrolo[2,3-c]pyridine-6-carbonyl)pyrrolidin-1-yl)-1-oxobutan-2-yl)carbamoyl)benzo[b]thiophen-5-yl)difluoromethyl)phosphonic acid]: the Ki at STAT6 protein and at STAT5A was greater than 10 µM throughout.

Turning to `CC(C)(C)[C@H](NC(=O)c1cc2cc(C(F)(F)P(=O)(O)O)ccc2s1)C(=O)N1CCC[C@H]1C(=O)N1CC[C@@H]2CNC[C@@H]21` [Compound 79, ((2-(((S)-3,3-dimethyl-1-((S)-2-((3aR,6aR)-octahydropyrrolo[3,4-b]pyrrole-1-carbonyl)pyrrolidin-1-yl)-1-oxobutan-2-yl)carbamoyl)benzo[b]thiophen-5-yl)difluoromethyl)phosphonic acid], the Ki at STAT6 protein and on STAT5A was greater than 10 µM in each case.

For the compound `CC(C)(C)[C@H](NC(=O)c1cc2cc(C(F)(F)P(=O)(O)O)ccc2s1)C(=O)N1CCC[C@H]1C(=O)N1C[C@H]2CCN[C@H]2C1` [Compound 80, ((2-(((S)-3,3-dimethyl-1-((S)-2-((3aR,6aR)-octahydropyrrolo[3,4-b]pyrrole-5-carbonyl)pyrrolidin-1-yl)-1-oxobutan-2-yl)carbamoyl)benzo[b]thiophen-5-yl)difluoromethyl)phosphonic acid], the Ki at STAT6 protein and at STAT5A was greater than 10 µM in each case.

In the case of `CC(=O)N1CC[C@@H]2CCN(C(=O)[C@@H]3CCCN3C(=O)[C@@H](NC(=O)c3cc4cc(C(F)(F)P(=O)(O)O)ccc4s3)C(C)(C)C)C[C@@H]21` [Compound 81, ((2-(((S)-1-((S)-2-((3aS,7aR)-1-acetyloctahydro-1H-pyrrolo[2,3-c]pyridine-6-carbonyl)pyrrolidin-1-yl)-3,3-dimethyl-1-oxobutan-2-yl)carbamoyl)benzo[b]thiophen-5-yl)difluoromethyl)phosphonic acid], the Ki on STAT6 protein and at STAT5A was greater than 10 µM each time.

Turning to `CCCCC(=O)N1CC[C@@H]2CCN(C(=O)[C@@H]3CCCN3C(=O)[C@@H](NC(=O)c3cc4cc(C(F)(F)P(=O)(O)O)ccc4s3)C(C)(C)C)C[C@@H]21` [Compound 82, ((2-(((S)-3,3-dimethyl-1-oxo-1-((S)-2-((3aS,7aR)-1-pentanoyloctahydro-1H-pyrrolo[2,3-c]pyridine-6-carbonyl)pyrrolidin-1-yl)butan-2-yl)carbamoyl)benzo[b]thiophen-5-yl)difluoromethyl)phosphonic acid], the Ki at STAT6 protein and on STAT5A was greater than 10 µM in each case.

Take `CC(C)(C)[C@H](NC(=O)c1cc2cc(C(F)(F)P(=O)(O)O)ccc2s1)C(=O)N1CCC[C@H]1C(=O)N1CC[C@H]2CCN(C(=O)c3ccc(F)cc3)[C@H]2C1` [Compound 83, (difluoro(2-(((S)-1-((S)-2-((3aS,7aR)-1-(4-fluorobenzoyl)octahydro-1H-pyrrolo[2,3-c]pyridine-6-carbonyl)pyrrolidin-1-yl)-3,3-dimethyl-1-oxobutan-2-yl)carbamoyl)benzo[b]thiophen-5-yl)methyl)phosphonic acid]: the Ki at STAT6 protein and on STAT5A was greater than 10 µM throughout.

With `CC(=O)N1C[C@H]2CCN(C(=O)[C@@H]3CCCN3C(=O)[C@@H](NC(=O)c3cc4cc(C(F)(F)P(=O)(O)O)ccc4s3)C(C)(C)C)[C@H]2C1` [Compound 84, ((2-(((S)-1-((S)-2-((3aR,6aR)-5-acetyloctahydropyrrolo[3,4-b]pyrrole-1-carbonyl)pyrrolidin-1-yl)-3,3-dimethyl-1-oxobutan-2-yl)carbamoyl)benzo[b]thiophen-5-yl)difluoromethyl)phosphonic acid], the Ki on STAT6 protein and at STAT5A was greater than 10 µM in each case.

In the case of `CCCCC(=O)N1C[C@H]2CCN(C(=O)[C@@H]3CCCN3C(=O)[C@@H](NC(=O)c3cc4cc(C(F)(F)P(=O)(O)O)ccc4s3)C(C)(C)C)[C@H]2C1` [Compound 85, ((2-(((S)-3,3-dimethyl-1-oxo-1-((S)-2-((3aR,6aR)-5-pentanoyloctahydropyrrolo[3,4-b]pyrrole-1-carbonyl)pyrrolidin-1-yl)butan-2-yl)carbamoyl)benzo[b]thiophen-5-yl)difluoromethyl)phosphonic acid], the Ki at STAT6 protein and on STAT5A was greater than 10 µM each time.
